Measured values reported in patent US8686150B2 (Sanofi, priority 2011, dated 2014).

Target: T1, human full-length recombinant PKC βII (Homo sapiens, UniProt P05771)
T1 construct: Active human full-length recombinant PKC βII; purchased Invitrogen GmbH, Darmstadt, Germany
Assay: Determination of PKC βII inhibition (Caliper mobility-shift kinase assay, Fluorescein-RFARKGSLRQKNV peptide substrate)
Type: biochemical
Settings: example compounds at a final concentration of 1.14 μM (±0.15 μM)
How it was run: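 Compounds were tested at 1.14 μM final. Enzyme was activated by PS, DAG and CaCl2 in Hepes pH 7.4 with MgCl2, with substrate 3 μM and ATP 120 μM as pre-mix concentrations. After 60 min at 32 °C and an EDTA stop, Caliper separation gave fractional turnover, which was normalised to no-compound and no-enzyme controls.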

T1 sequence (P05771 1-673 isoform P05771-2): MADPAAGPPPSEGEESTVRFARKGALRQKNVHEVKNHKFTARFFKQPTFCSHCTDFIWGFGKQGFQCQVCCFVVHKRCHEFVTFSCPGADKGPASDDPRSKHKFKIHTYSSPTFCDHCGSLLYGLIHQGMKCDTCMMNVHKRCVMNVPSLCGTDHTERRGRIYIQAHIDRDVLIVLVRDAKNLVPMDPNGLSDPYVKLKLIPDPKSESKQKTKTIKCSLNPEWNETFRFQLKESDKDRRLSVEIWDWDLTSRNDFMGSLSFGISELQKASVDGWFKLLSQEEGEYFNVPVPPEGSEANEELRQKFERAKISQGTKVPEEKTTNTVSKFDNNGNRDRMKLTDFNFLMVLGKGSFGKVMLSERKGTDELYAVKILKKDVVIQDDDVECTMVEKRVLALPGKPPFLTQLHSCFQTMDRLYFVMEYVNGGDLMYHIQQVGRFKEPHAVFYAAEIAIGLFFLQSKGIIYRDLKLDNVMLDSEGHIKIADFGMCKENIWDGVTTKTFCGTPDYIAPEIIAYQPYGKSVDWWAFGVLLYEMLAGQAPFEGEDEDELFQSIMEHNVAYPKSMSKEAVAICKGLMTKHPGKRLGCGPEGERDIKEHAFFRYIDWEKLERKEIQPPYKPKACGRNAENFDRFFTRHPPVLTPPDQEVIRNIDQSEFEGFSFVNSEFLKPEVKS

Compound: O=C(N[C@@H]1CCCNC1)c1cc(-c2ccc(O)cc2)nc2[nH]nc(C(F)(F)F)c12 [Example 398, 6-(4-Hydroxy-phenyl)-3-trifluoromethyl-1H-pyrazolo[3,4-b]pyridine-4-carboxylic acid (R)-piperidin-3-ylamide]
- inhibition at 1.14 µM: 21%

Compound: Cc1n[nH]c2nc(-c3ccc(O)c(F)c3)cc(C(=O)N3CCNC(C(F)(F)F)C3)c12 (stereo not shown) [Example 314, [6-(3-Fluoro-4-hydroxy-phenyl)-3-methyl-1H-pyrazolo[3,4-b]pyridin-4-yl]-(3-trifluoromethyl-piperazin-1-yl)-methanone]
- inhibition at 1.14 µM: 35%

Compound: Cc1ccc([C@@H]2CNC[C@H]2NC(=O)c2cc(-c3ccc(O)cc3)nc3[nH]nc(C)c23)cc1 (relative stereo) [Example 119, 6-(4-Hydroxy-phenyl)-3-methyl-1H-pyrazolo[3,4-b]pyridine-4-carboxylic acid (trans-4-p-tolyl-pyrrolidin-3-yl)-amide]
- inhibition at 1.14 µM: 91%

Compound: Cc1n[nH]c2nc(-c3ccc(O)cc3)cc(C(=O)N3CCNC[C@H]3C(=O)NC(C)(C)C)c12 [Example 232, (S)-1-[6-(4-Hydroxy-phenyl)-3-methyl-1H-pyrazolo[3,4-b]pyridine-4-carbonyl]-piperazine-2-carboxylic acid tert-butylamide]
- inhibition at 1.14 µM: 95%

Compound: Cc1n[nH]c2nc(-c3ccc(O)cc3F)cc(C(=O)N3C[C@@H](C)N(CC4CCNCC4)C[C@@H]3C)c12 [Example 453, ((2S,5R)-2,5-Dimethyl-4-piperidin-4-ylmethyl-piperazin-1-yl)-[6-(2-fluoro-4-hydroxy-phenyl)-3-methyl-1H-pyrazolo[3,4-b]pyridin-4-yl]-methanone]
- inhibition at 1.14 µM: 90%

Compound: Cc1n[nH]c2nc(-c3ccc(O)cc3)cc(C(=O)N3CCNC[C@@H]3Cc3ccccc3)c12 [Example 225, ((S)-2-Benzyl-piperazin-1-yl)-[6-(4-hydroxy-phenyl)-3-methyl-1H-pyrazolo[3,4-b]pyridin-4-yl]-methanone]
- inhibition at 1.14 µM: 85%

Compound: Cc1n[nH]c2nc(-c3ccc(O)c(F)c3)cc(C(=O)N3C[C@H]4CC[C@@H](C3)C4N)c12 (stereo partly shown) [Example 310, (8-Amino-3-aza-bicyclo[3.2.1]oct-3-yl)-[6-(3-fluoro-4-hydroxy-phenyl)-3-methyl-1H-pyrazolo[3,4-b]pyridin-4-yl]-methanone]
- inhibition at 1.14 µM: 91%

Compound: CCCC1(N)CCN(C(=O)c2cc(-c3ccc(O)cc3)nc3[nH]nc(C)c23)C1 (stereo not shown) [Example 47, (3-Amino-3-propyl-pyrrolidin-1-yl)-[6-(4-hydroxy-phenyl)-3-methyl-1H-pyrazolo[3,4-b]pyridin-4-yl]-methanone]
- inhibition at 1.14 µM: 70%

Compound: Cc1n[nH]c2nc(-c3ccc(O)cc3)cc(C(=O)N3CC4CCCCN4CC3C)c12 (stereo not shown) [Example 285, [6-(4-Hydroxy-phenyl)-3-methyl-1H-pyrazolo[3,4-b]pyridin-4-yl]-(3-methyl-octahydro-pyrido[1,2-a]pyrazin-2-yl)-methanone]
- inhibition at 1.14 µM: 76%

Compound: Cc1n[nH]c2nc(-c3ccc(O)cc3)cc(C(=O)N3CCNCC3c3ccc4c(c3)OCO4)c12 (stereo not shown) [Example 32, (2-Benzo[1,3]dioxol-5-yl-piperazin-yl)-[6-(4-hydroxy-phenyl)-3-methyl-1H-pyrazolo[3,4-b]pyridin-4-yl]-methanone]
- inhibition at 1.14 µM: 98%

Compound: Cc1n[nH]c2nc(-c3ccc(O)cc3)cc(C(=O)N3C[C@H](C)NC[C@H]3c3ccccc3)c12 [Example 459, [6-(4-Hydroxy-phenyl)-3-methyl-1H-pyrazolo[3,4-b]pyridin-4-yl]-((2R,5S)-5-methyl-2-phenyl-piperazin-1-yl)-methanone]
- inhibition at 1.14 µM: 95%

Compound: Cc1n[nH]c2nc(-c3ccc(O)cc3)cc(C(=O)N3CCCN(C(=O)c4ccncc4)CC3)c12 [Example 387, [6-(4-Hydroxy-phenyl)-3-methyl-1H-pyrazolo[3,4-b]pyridin-4-yl]-[4-(pyridine-4-carbonyl)-[1,4]diazepan-1-yl]-methanone]
- inhibition at 1.14 µM: 39%

Compound: Cc1n[nH]c2nc(-c3ccc(O)cc3)cc(C(=O)N3CCN(C)CC3c3ccccc3)c12 (stereo not shown) [Example 372, [6-(4-Hydroxy-phenyl)-3-methyl-1H-pyrazolo[3,4-b]pyridin-4-yl]-(4-methyl-2-phenyl-piperazin-1-yl)-methanone]
- inhibition at 1.14 µM: 66%

Compound: Cc1n[nH]c2nc(-c3ccc(O)cc3Cl)cc(C(=O)N3CCNCC3)c12 [Example 6, [6-(2-Chloro-4-hydroxy-phenyl)-3-methyl-1H-pyrazolo[3,4-b]pyridin-4-yl]-piperazin-1-yl-methanone]
- inhibition at 1.14 µM: 97%

Compound: CCC(CCN)NC(=O)c1cc(-c2ccc(O)cc2)nc2[nH]nc(C)c12 (stereo not shown) [Example 127, 6-(4-Hydroxy-phenyl)-3-methyl-1H-pyrazolo[3,4-b]pyridine-4-carboxylic acid (3-amino-1-ethyl-propyl)-amide]
- inhibition at 1.14 µM: 90%

Compound: Cc1n[nH]c2nc(-c3ccc(O)c(F)c3)cc(C(=O)NC3CC(C)(C)N(C)C(C)(C)C3)c12 [Example 364, 6-(3-Fluoro-4-hydroxy-phenyl)-3-methyl-1H-pyrazolo[3,4-b]pyridine-4-carboxylic acid (1,2,2,6,6-pentamethyl-piperidin-4-yl)-amide]
- inhibition at 1.14 µM: 38%

Compound: CC1(C)CNCCN1C(=O)c1cc(-c2ccc(O)cc2)nc2[nH]nc(C3CC3)c12 [Example 157, [3-Cyclopropyl-6-(4-hydroxy-phenyl)-1H-pyrazolo[3,4-b]pyridin-4-yl]-(2,2-dimethyl-piperazin-1-yl)-methanone]
- inhibition at 1.14 µM: 91%

Compound: CCc1n[nH]c2nc(-c3ccc(O)cc3)cc(C(=O)NC3CCCN(CC)C3)c12 (stereo not shown) [Example 175, 3-Ethyl-6-(4-hydroxy-phenyl)-1H-pyrazolo[3,4-b]pyridine-4-carboxylic acid (1-ethyl-piperidin-3-yl)-amide]
- inhibition at 1.14 µM: 46%

Compound: Cc1n[nH]c2nc(-c3ccc(O)cc3F)cc(C(=O)N3C[C@@H](C)NC[C@H]3C)c12 [Example 428, ((2R,5R)-2,5-Dimethyl-piperazin-1-yl)-[6-(2-fluoro-4-hydroxy-phenyl)-3-methyl-1H-pyrazolo[3,4-b]pyridin-4-yl]-methanone]
- inhibition at 1.14 µM: 35%

Compound: Cc1n[nH]c2nc(-c3ccc(O)cc3F)cc(C(=O)N3C[C@H]4CNC[C@H]4C3)c12 [Example 419, [6-(2-Fluoro-4-hydroxy-phenyl)-3-methyl-1H-pyrazolo[3,4-b]pyridin-4-yl]-(3aR,6aS)-hexahydro-pyrrolo[3,4-c]pyrrol-2-yl-methanone]
- inhibition at 1.14 µM: 79%

Compound: Cc1n[nH]c2nc(-c3ccc(O)c(F)c3)cc(C(=O)N3CC4(CCNCC4)c4ccccc43)c12 [Example 330, (1,2-Dihydro-5-spiro[3H-indole-3,4′-piperidin]-1-yl)-[6-(3-fluoro-4-hydroxy-phenyl)-3-methyl-1H-pyrazolo[3,4-b]pyridin-4-yl]-methanone]
- inhibition at 1.14 µM: 45%

Compound: Cc1cc(O)ccc1-c1cc(C(=O)N2CCNCC2c2cccc(F)c2)c2c(C)n[nH]c2n1 (stereo not shown) [Example 147, [2-(3-Fluoro-phenyl)-piperazin-1-yl]-[6-(4-hydroxy-2-methyl-phenyl)-3-methyl-1H-pyrazolo[3,4-b]pyridin-4-yl]-methanone]
- inhibition at 1.14 µM: 96%

Compound: Cc1n[nH]c2nc(-c3ccc(O)cc3)cc(C(=O)NCCC(C)(C)N)c12 [Example 129, 6-(4-Hydroxy-phenyl)-3-methyl-1H-pyrazolo[3,4-b]pyridine-4-carboxylic acid (3-amino-3-methyl-butyl)-amide]
- inhibition at 1.14 µM: 69%

Compound: Cc1n[nH]c2nc(-c3ccc(O)c(F)c3)cc(C(=O)N3CC[C@H](N)C3)c12 [Example 292, ((S)-3-Amino-pyrrolidin-1-yl)-[6-(3-fluoro-4-hydroxy-phenyl)-3-methyl-1H-pyrazolo[3,4-b]pyridin-4-yl]-methanone]
- inhibition at 1.14 µM: 77%

Compound: Cc1n[nH]c2nc(-c3ccc(O)cc3)cc(C(=O)N3CC[C@@H](C4(N)CC4)C3)c12 [Example 203, [(R)-3-(1-Amino-cyclopropyl)-pyrrolidin-1-yl]-[6-(4-hydroxy-phenyl)-3-methyl-1H-pyrazolo[3,4-b]pyridin-4-yl]-methanone]
- inhibition at 1.14 µM: 71%

Compound: O=C(NC1CNC1)c1cc(-c2ccc(O)cc2)nc2[nH]nc(C(F)(F)F)c12 [Example 402, 6-(4-Hydroxy-phenyl)-3-trifluoromethyl-1H-pyrazolo[3,4-b]pyridine-4-carboxylic acid azetidin-3-ylamide]
- inhibition at 1.14 µM: 41%

Compound: CCc1n[nH]c2nc(-c3ccc(O)cc3)cc(C(=O)N3CCC4(CCNC4)C3)c12 (stereo not shown) [Example 172, (2,7-Diaza-spiro[4.4]non-2-yl)-[3-ethyl-6-(4-hydroxy-phenyl)-1H-pyrazolo[3,4-b]pyridin-4-yl]-methanone]
- inhibition at 1.14 µM: 67%

Compound: Cc1n[nH]c2nc(-c3ccc(O)cc3F)cc(C(=O)N3CCN[C@@H](C)[C@H]3C)c12 (racemic) [Example 442, ((cis)-2,3-Dimethyl-piperazin-1-yl)-[6-(2-fluoro-4-hydroxy-phenyl)-3-methyl-1H-pyrazolo[3,4-b]pyridin-4-yl]-methanone]
- inhibition at 1.14 µM: 97%

Compound: Cc1n[nH]c2nc(-c3ccc(O)cc3)cc(C(=O)NCCN3CCC(c4ccccc4)C3)c12 (stereo not shown) [Example 388, 6-(4-Hydroxy-phenyl)-3-methyl-1H-pyrazolo[3,4-b]pyridine-4-carboxylic acid [2-(3-phenyl-pyrrolidin-1-yl)-ethyl]-amide]
- inhibition at 1.14 µM: 54%

Compound: Cc1n[nH]c2nc(-c3ccc(O)cc3)cc(C(=O)N3CCC4(CCCNC4)C3)c12 (stereo not shown) [Example 235, (2,7-Diaza-spiro[4.5]dec-2-yl)-[6-(4-hydroxy-phenyl)-3-methyl-1H-pyrazolo[3,4-b]pyridin-4-yl]-methanone]
- inhibition at 1.14 µM: 89%

Compound: Cc1n[nH]c2nc(-c3ccc(O)c(F)c3)cc(C(=O)N3CCC4(CNCCO4)C3)c12 (stereo not shown) [Example 323, [6-(3-Fluoro-4-hydroxy-phenyl)-3-methyl-1H-pyrazolo[3,4-b]pyridin-4-yl]-(6-oxa-2,9-diaza-spiro[4.5]dec-2-yl)-methanone]
- inhibition at 1.14 µM: 42%
